Measured values reported in PMC5336524 (Drug testing and analysis, 2016).
Like-named read-outs stand apart in the source and are kept apart here.

Experiments:
[1] = molecular target: T1, dopamine transporters (DAT) (Rattus norvegicus, UniProt P23977); experiment: [3H]dopamine uptake inhibition in rat brain synaptosomes; assay type: biochemical; conditions: 5 nM [3H]dopamine, mean ± SD, n = 3, inactive = no inhibition at 10,000 nM; for IC50: [3H]DA uptake via DAT IC50, rat brain synaptosomes
[2] = molecular target: T1, dopamine transporters (DAT); experiment: [3H]MPP+ release via DAT from rat brain synaptosomes; assay type: biochemical; conditions: for [3H]MPP+ release via DAT EC50: rat brain synaptosomes, 9 nM [3H]MPP+, mean ± SD, n = 3, inactive = efficacy less than 33% of maximal release
[3] = molecular target: T2, norepinephrine transporters (NET) (Rattus norvegicus, UniProt Q63380); experiment: [3H]MPP+ release via NET from rat brain synaptosomes; assay type: biochemical; conditions: for [3H]MPP+ release via NET EC50: rat brain synaptosomes, 9 nM [3H]MPP+, mean ± SD, n = 3, inactive = efficacy less than 33% of maximal release
[4] = molecular target: 5-HT transporters (SERT) (Rattus norvegicus, UniProt P31652); experiment: [3H]5-HT release via SERT from rat brain synaptosomes; assay type: biochemical
[5] = molecular target: serotonin transporters (SERT) (Rattus norvegicus, UniProt P31652); experiment: [3H]serotonin uptake inhibition in rat brain synaptosomes; assay type: biochemical
[6] = molecular target: T2, norepinephrine transporters (NET); experiment: [3H]norepinephrine uptake inhibition in rat brain synaptosomes; assay type: biochemical
[7] = Stability of N-methoxymephedrone; assay type: physicochemical; conditions: solid; over time converts from a colourless solid to a brown solid; hygroscopic
[8] = [3H]5-HT release via SERT EC50, rat brain synaptosomes, 5 nM [3H]5-HT, mean ± SD, n = 3, inactive = efficacy less than 33% of maximal release
[9] = ratio of uptake IC50 values versus mexedrone

T1 sequence (P23977 whole entry): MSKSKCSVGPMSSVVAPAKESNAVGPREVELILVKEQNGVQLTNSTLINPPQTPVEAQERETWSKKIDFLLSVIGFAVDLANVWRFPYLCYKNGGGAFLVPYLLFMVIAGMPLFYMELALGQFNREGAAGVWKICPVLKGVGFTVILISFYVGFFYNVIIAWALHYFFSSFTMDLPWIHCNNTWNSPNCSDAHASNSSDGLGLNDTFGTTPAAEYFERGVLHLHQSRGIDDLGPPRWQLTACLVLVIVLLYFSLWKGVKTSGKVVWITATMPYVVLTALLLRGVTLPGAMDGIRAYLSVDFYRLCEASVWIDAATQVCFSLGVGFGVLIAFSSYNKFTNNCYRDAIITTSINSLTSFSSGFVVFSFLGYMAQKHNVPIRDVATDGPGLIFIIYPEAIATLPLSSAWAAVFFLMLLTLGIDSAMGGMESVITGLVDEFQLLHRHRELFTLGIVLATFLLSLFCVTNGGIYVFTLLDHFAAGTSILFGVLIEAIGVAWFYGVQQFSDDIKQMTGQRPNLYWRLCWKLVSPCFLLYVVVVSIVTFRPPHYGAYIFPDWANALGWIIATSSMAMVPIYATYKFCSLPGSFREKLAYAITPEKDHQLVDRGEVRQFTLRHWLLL
T2 sequence (Q63380 1-617): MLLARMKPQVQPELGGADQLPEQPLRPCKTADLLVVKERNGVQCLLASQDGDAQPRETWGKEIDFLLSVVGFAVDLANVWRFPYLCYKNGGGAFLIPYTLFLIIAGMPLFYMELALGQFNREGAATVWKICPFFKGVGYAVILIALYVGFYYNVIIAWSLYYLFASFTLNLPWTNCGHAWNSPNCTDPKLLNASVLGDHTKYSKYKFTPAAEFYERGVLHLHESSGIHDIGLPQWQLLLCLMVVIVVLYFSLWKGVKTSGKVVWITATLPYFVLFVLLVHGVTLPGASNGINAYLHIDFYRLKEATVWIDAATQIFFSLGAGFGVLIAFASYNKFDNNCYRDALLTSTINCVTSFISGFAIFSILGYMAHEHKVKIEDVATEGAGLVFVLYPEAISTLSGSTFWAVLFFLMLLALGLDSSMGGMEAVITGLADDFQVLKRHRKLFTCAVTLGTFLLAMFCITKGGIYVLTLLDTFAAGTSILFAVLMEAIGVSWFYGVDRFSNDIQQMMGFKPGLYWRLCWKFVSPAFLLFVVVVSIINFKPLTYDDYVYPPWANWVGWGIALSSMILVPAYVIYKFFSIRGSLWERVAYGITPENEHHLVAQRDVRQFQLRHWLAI
Chain of serotonin transporters (SERT) (P31652 whole entry): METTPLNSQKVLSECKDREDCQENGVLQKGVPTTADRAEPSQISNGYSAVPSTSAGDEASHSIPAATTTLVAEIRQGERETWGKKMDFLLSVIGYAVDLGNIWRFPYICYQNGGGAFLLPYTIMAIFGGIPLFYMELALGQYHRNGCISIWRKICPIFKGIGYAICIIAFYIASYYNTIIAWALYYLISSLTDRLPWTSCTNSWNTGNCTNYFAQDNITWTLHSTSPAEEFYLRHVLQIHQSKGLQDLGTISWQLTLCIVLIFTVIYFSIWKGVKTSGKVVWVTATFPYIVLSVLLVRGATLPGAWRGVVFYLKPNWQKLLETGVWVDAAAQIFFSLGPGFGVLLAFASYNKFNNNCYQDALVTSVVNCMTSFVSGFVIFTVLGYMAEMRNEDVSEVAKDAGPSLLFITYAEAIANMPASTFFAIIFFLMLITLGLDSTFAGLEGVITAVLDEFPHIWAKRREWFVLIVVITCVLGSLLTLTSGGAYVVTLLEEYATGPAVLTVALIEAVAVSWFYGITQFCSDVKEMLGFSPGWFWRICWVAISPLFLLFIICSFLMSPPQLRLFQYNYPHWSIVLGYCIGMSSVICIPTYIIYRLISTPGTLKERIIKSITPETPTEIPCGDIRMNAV
Chain of 5-HT transporters (SERT) (P31652 whole entry): as above

Row | SMILES | IC50 [1] | EC50 [2] | EC50 [3] | EC50 [4, 8] | IC50 [5] | IC50 [6] | [3H]MPP+ release via DAT EC50 [2] | [3H]MPP+ release via NET EC50 [3] | EC50 ([4]; releasing activity at SERT EC50, rat brain synaptosomes) | stability in crystalline form [7] | EC50 [4] | fold more potent than mexedrone at SERT (uptake inhibition) [5, 9] | fold more potent than mexedrone at NET (uptake inhibition) [6, 9] | [3H]DA uptake via DAT IC50 ([1]; rat brain synaptosomes) | [3H]5-HT release via SERT EC50 ([4]; rat brain synaptosomes, 5 nM [3H]5-HT, mean ± SD, n = 3, inactive = efficacy less than 33% of maximal release) | [3H]5-HT uptake via SERT IC50 ([5]; rat brain synaptosomes, 5 nM [3H]serotonin, mean ± SD, n = 3, inactive = no inhibition at 10,000 nM) | [3H]NE uptake via NET IC50 ([6]; rat brain synaptosomes, 10 nM [3H]norepinephrine, mean ± SD, n = 3, inactive = no inhibition at 10,000 nM)
1 | CNC(C)C(=O)c1ccc(C)cc1 (stereo not shown) [Mephedrone, 2-(methylamino)-1-(4-methylphenyl)propan-1-one, reference compound] | 1060 ± 85 nM | 45 ± 6 nM | 58 ± 7 nM | 163 ± 30 nM | 470 ± 7.6 nM | 494 ± 93 nM |  |  |  |  |  |  |  |  |  |  | 
2 | CNC(COC)C(=O)c1ccc(C)cc1 (stereo not shown) [Mexedrone, 3-Methoxy-2-(methylamino)-1-(4-methylphenyl)propan-1-one] | 6840 ± 1520 nM |  |  | 2520 ± 560 nM | 5290 ± 1620 nM | 8870 ± 3100 nM | inactive | inactive | 2500 nM |  |  |  |  |  |  |  | 
3 | CON(C)C(C)C(=O)c1ccc(C)cc1 (stereo not shown) [N-Methoxymephedrone, 2-(Methoxy(methyl)amino)-1-(4-methylphenyl)propan-1-one] | 6090 ± 1620 nM | 666 ± 132 nM | 313 ± 51 nM |  | 3330 ± 1130 nM | 3460 ± 728 nM |  |  |  | unstable | 1040 ± 271 nM | 1.6 fold | 2.6 fold |  |  |  | 
4 | CNC(CCl)C(=O)c1ccc(C)cc1 (stereo not drawn) [α-Chloromethylmephedrone, 3-chloro-2-(methylamino)-1-(4-methylphenyl)propan-1-one] |  |  |  |  |  |  | inactive | inactive |  |  |  |  |  | inactive | inactive | inactive | inactive
